Our source for the IC50 values is patent US9493451B2 (Bionomics Limited, priority 2011, dated 2016).

As usually defined, the IC50 is the concentration that inhibits the measured activity by half.

T1 sequence (P22001 whole entry): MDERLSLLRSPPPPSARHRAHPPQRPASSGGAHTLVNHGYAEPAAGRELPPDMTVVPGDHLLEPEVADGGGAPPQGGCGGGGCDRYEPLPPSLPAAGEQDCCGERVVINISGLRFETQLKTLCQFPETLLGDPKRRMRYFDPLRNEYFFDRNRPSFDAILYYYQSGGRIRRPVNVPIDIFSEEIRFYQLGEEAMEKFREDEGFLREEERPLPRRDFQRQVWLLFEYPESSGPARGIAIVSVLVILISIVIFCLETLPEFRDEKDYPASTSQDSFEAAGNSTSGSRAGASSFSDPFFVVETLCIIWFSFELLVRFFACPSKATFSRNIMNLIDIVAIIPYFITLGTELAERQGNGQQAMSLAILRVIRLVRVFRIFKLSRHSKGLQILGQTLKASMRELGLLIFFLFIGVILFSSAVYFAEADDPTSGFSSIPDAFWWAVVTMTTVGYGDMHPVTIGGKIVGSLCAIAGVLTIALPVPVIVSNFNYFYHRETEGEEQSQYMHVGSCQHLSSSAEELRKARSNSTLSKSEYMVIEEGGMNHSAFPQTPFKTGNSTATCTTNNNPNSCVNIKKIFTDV

The test concerns the target T1, Kv1.3 (Homo sapiens, UniProt P22001).
T1 construct: expressed in transfected cells; host or cells: CHO (Kv1.3/CHO)
The test is described as follows: Electrophysiology: planar patch-clamp of Kv1.3 currents, IC50 from steady state current amplitude. It is filed as cell-based. The conditions noted are these: Kv1.3 electrophysiology, results according to Method D1, read-out: IC50 (Kv1.3 ephys steady state). The method in brief: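 Planar patch-clamp, whole-cell, Kv1.3/CHO cells; 500 ms pulses to +40 mV from −80 mV every 30 s; bath pH 7.4, pipette pH 7.2; 0.5% DMSO final. 5-6 cumulative concentrations on 2-3 cells to steady-state block; IC50 from Hill fit of normalised steady-state current at pulse end.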
(In general: The patch-clamp technique gives a direct electrical read-out from membranes.)
As for `O=C(C1CC1c1ccc(F)cc1F)N(Cc1cccnn1)C(c1ccc(OC(F)F)cc1)C1CC1` (stereo not shown) [Example 182], the IC50 fell in the range of 50 to 200 nM.

On to `O=C(CS(=O)(=O)c1ccc(F)cc1)N(Cc1ccc(C(F)(F)F)nc1)C(c1ccccc1OCC(F)F)C1CC1` (stereo not shown) [Example 330], for which the IC50 was in the range of 50 to 200 nM. The figure for `CN1CCC(C(c2cccc(C(F)(F)F)c2)N(Cc2ccc(F)cn2)C(=O)C2CC2c2ccc(F)cc2)CC1` (stereo not shown) [Example 146] is 200 to 1000 nM; for `N#Cc1cccc(C(C2CC2)N(Cc2ncccc2F)C(=O)C2CC2c2ccc(F)cc2)c1` (stereo not shown) [Example 251] it is 200 to 1000 nM. As for `O=C(CS(=O)(=O)c1ccc(F)cc1)N(C1CCC(F)(F)CC1)C(c1ccc(OC(F)F)cc1)C1CC1` (stereo not shown) [Example 315], the IC50 is 200 to 1000 nM.

Regarding `CC(CC(=O)N(Cc1ccccn1)C(c1ccc2c(c1)S(=O)(=O)C(C)(C)O2)C1CC1)c1ccc(F)cc1` (single isomer, unassigned) [Example 74, N-[cyclopropyl(2,2-dimethyl-3,3-dioxido-1,3-benzoxathiol-5-yl)methyl]-3-(4-fluorophenyl)-N-(pyridin-2-ylmethyl)butanamide], the 50% inhibitory concentration (IC50) was < 50 nM.

As to `CCS(=O)(=O)c1cccc(C(C2CC2)N(Cc2ccc(F)cn2)C(=O)C2CC2c2ccc(F)cc2)c1` (stereo not shown) [Example 215], the half-inhibitory concentration (IC50) lay in the range of 50 to 200 nM.
